Laboratory results: publication PMC11887673, “Malformin C preferentially kills glioblastoma stem‐like cells via concerted induction of proteotoxic stress and autophagic flux blockade” (Molecular Oncology, 2024)
Bridge positions count the residues as written; N and C are the ends. Square brackets hold non-standard residues; d marks the D form. Peptide text beside a SMILES is read from it.

Assays:
[1] = tested on: GSCs; assay: Cell viability, GSCs compared with normal or other cells; assay type: cell-based, human; details: 48 h, CellTiter-Glo
Source text: GSC lines NCH421k, NCH441, NCH644, NCH711d, and NCH705 were derived from newly diagnosed GB patients who underwent surgical resection according to the research proposals approved by the Institutional Review Board at the Medical Faculty of Heidelberg (license: Neurosurgery brain tissue 005/2003; samples collected between 2003 and 2010 at Heidelberg University Hospital from patients who gave informed written consent) and performed in accordance to the Declaration of Helsinki. The cells were cultivated in serum‐free stem cell medium up to maximum passage 60 as previously described. Human astrocytes originating from fetal cerebral cortex were purchased from ScienCell, Research Laboratories, Carlsbad, CA, USA (#1800) and cultured in DMEM (Sigma‐Aldrich, Steinheim, Germany) supplemented with 10% (v/v) FCS (Merck Millipore, Darmstadt, Germany), 1 mM sodium pyruvate, 1 × GlutaMAX, and 1 × N‐2 supplement (all Life Technologies, Darmstadt, Germany). Human fetal neural stem cells (HFNSCs) were kindly provided by Dr C Watts at the Department of Clinical Neurosciences, University of Cambridge. Tissue procurement was approved by the Cambridge Local Regional Ethics committee and in accordance with section 16(e) (ii) of the United Kingdom Human Tissue Act and the Declaration of Helsinki. They were established from 12‐ to 14‐week‐old human postmortem fetal tissue as described by Iovino et al. The cells were cultured as neurospheres in neural stem cell medium (DMEM/F‐12 medium, 2% (v/v) B27 supplement, at 20 ng·mL^−1 each of bFGF and EGF, 2.5 μg·mL^−1 heparin). BJ cells (RRID: CVCL_3653) (human fibroblasts) were purchased from ATCC and cultivated in DMEM low glucose supplemented with 10% FCS. […]
Cells were seeded in 96‐well plates at a density of 8500 cells per well. […] Cell viability was assessed by the CellTiter‐Glo® (Promega) luminescent cell viability assay. […] Data were normalized to the vehicle control, and four parameter logistic curves were fitted and IC50 values calculated using […] […]

[2] = tested on: NCH421k; assay: Assessment of synergy, combination cell viability (CellTiter-Glo); assay type: cell-based, human
Procedure: NCH421k cells were seeded in 96‐well white plates with 8500 cells per well in 40 μL medium. To determine control curves, cells were treated with 50 μL of a 2× concentration of TMZ or CQ and 10 μL of medium and incubated for 48 h. For drug combinations, cells were treated with 10 μL of a 10× concentration of malformin C and with 50 μL of a 2× concentration of TMZ or CQ. Cell viability was determined after 48 h using the CellTiter‐Glo® assay according to the manufacturer's instructions. Synergy was determined using […] at https://synergyfinder.org/ [35].

[3] = Pharmacokinetics in plasma and blood brain barrier penetration after i.v. administration; assay type: in vivo; details: RjOrl:Swiss CD-1, mouse, iv, male CD-1 mice, 0.5 mg·kg^−1 i.v., LC–MS
Procedure: Pharmacokinetic (PK) parameters in plasma and blood brain barrier penetration after intravenous administration of malformin C were evaluated by Pharmacelsus GmbH. Nine adult male RjOrl : Swiss CD‐1 mice were injected i.v. with 0.5 mg·kg^−1 malformin C. K‐EDTA plasma was obtained from the retrobulbar venous plexus under isoflurane anesthesia. The plasma samples were prepared within 45 min after collection, frozen at −20 °C, and stored at this temperature until processed for LC–MS analysis. For brain collection, mice were sacrificed by cervical dislocation, immediately after the last blood sample was obtained. Brains were dissected, frozen, and stored at −20 °C. PK analysis was performed using […] 5.0 Software, Allersberg, Germany. All experimental procedures were approved by and conducted in accordance with the regulations of the local Animal Welfare authorities (Landesamt für Gesundheit und Verbraucherschutz, Abteilung Lebensmittel‐und Veterinärwesen, Saarbrücken).

[4] = tested on: fibroblasts (BJ); assay: Caspase 3/7 activation (Caspase Glo); assay type: cell-based, human; details: 50 nM, 8 h, n = 3
Procedure: (§1) A total of 5000 cells were seeded into white 96‐well plates in a volume of 50 μL medium. Malformin C or Az‐mal. C was added to the medium at the indicated concentrations and incubated for the indicated times. Caspase 3/7 activity was measured using the Caspase Glo assay (Promega), according to the manufacturer's protocol.

[5] = tested on: NCH441; assay: Caspase 3/7 activation (Caspase Glo); assay type: cell-based, human; details: 50 nM, within 6–8 h, n = 3
Procedure: as §1

[6] = tested on: primary astrocytes (pAstro); assay: Caspase 3/7 activation (Caspase Glo); assay type: cell-based, human; details: 50 nM, 8 h, n = 3
Procedure: as §1

[7] = tested on: NCH421k; assay: Caspase 3/7 activation (Caspase Glo); assay type: cell-based, human; details: 50 nM, within 6–8 h, n = 3
Procedure: as §1

[8] = tested on: NCH421k GSCs expressing luciferase; assay: In vivo tumor propagation, flank xenograft; design: species or system NSG mice
Procedure: (§2) NCH421k GSCs were transduced with lentiviral particles carrying the pLenti PGK V5‐LUC Neo plasmid, which was a gift from Eric Campeau (Addgene plasmid # 21471) and transduced cells were selected using 400 μg·mL^−1 G418. Six‐week‐old female NOD.Cg‐Prkdc ^ scid Il2rg ^ tm1Wjl /SzJ (NOD‐SCIDγ) mice were obtained from the animal facility at the DKFZ. All animal experiments were performed according to animal welfare regulations and were approved by the responsible authorities (Regierungspräsidium Karlsruhe, approval number G289‐14). Animals were housed in a temperature‐controlled vivarium on a 12 h : 12 h light–dark cycle with ad libitum food and water, and all animals were monitored daily for health status and tumor‐related symptoms. […] Tumor growth was monitored using an IVIS Lumina Preclinical in vivo IMAGING SYSTEM AND LIVING IMAGE Software (version 2.50.1) (Perkin Elmer, Rodgau, Germany) and volume measurement using calipers once a week for 7 weeks, or until the tumor reached a volume of 500 mm^3.
(§3) Malformin C has been previously reported to induce fatal toxicity at doses of over 0.9 mg·kg^−1 in BDF1 mice, likely due to an acute inflammatory response. […] Seven days later, after engraftment of the cells was confirmed by the appearance of a luminescence signal, mice were treated with malformin C or DMSO (0.5 mg·kg^−1 3 × per week) for 37 days. […]

[9] = tested on: NOD scid gamma (NSG) mice; assay: Toxicity and tolerability of repeated doses; assay type: in vivo, mouse
Procedure: as §2, §3

[10] = tested on: BDF1 mice; details: cited from earlier work
Procedure: Malformin C has been previously reported to induce fatal toxicity at doses of over 0.9 mg·kg^−1 in BDF1 mice, likely due to an acute inflammatory response. […] In a pharmacokinetic study, malfo ...

tunicamycin
loss of viability in GSCs compared with normal cells [1]: not more sensitive than astrocytes

Cn1nnc2c(C(N)=O)ncn2c1=O [TMZ, temozolomide]
synergy with malformin C (SynergyFinder, ZIP synergy score) [2]: synergistic effect | inhibition at 80 µM ([2]; Homo sapiens, 48 h, TMZ 80 μM, Malformin C 0 nM, n = 3): 2% | inhibition at 160 µM ([2]; Homo sapiens, 48 h, TMZ 160 μM, Malformin C 0 nM, n = 3): 6% | inhibition at 310 µM ([2]; Homo sapiens, 48 h, TMZ 310 μM, Malformin C 0 nM, n = 3): 6% | inhibition at 500 µM ([2]; Homo sapiens, 48 h, TMZ 500 μM, Malformin C 0 nM, n = 3): 22% | inhibition at 1000 µM ([2]; Homo sapiens, 48 h, TMZ 1000 μM, Malformin C 0 nM, n = 3): 47%

CCN(CC)CCCC(C)Nc1ccnc2cc(Cl)ccc12 (stereo not shown) [CQ, chloroquine]
synergy with malformin C (SynergyFinder, ZIP synergy score) [2]: much stronger | inhibition at 23.7 µM ([2]; Homo sapiens, 48 h, CQ 23.7 μM, Malformin C 0 nM, n = 3): 17% | inhibition at 31.6 µM ([2]; Homo sapiens, 48 h, CQ 31.6 μM, Malformin C 0 nM, n = 3): 32% | inhibition at 42.2 µM ([2]; Homo sapiens, 48 h, CQ 42.2 μM, Malformin C 0 nM, n = 3): 33% | inhibition at 75 µM ([2]; Homo sapiens, 48 h, CQ 75 μM, Malformin C 0 nM, n = 3): 99%

malformin A1
loss of viability in GSCs compared with normal cells [1]: more potent against GSCs than normal cells

CN[C@@H]1C[C@H]2O[C@@](C)([C@@H]1OC)n1c3ccccc3c3c4c(c5c6ccccc6n2c5c31)C(=O)NC4 [staurosporine]
loss of viability in GSCs compared with normal cells [1]: similarly

CC(C)C[C@@H]1NC(=O)[C@@H](CC(C)C)NC(=O)[C@H](C(C)C)NC(=O)[C@H]2CSSC[C@@H](NC1=O)C(=O)N2 [malformin C] (cyclo(L[dC][dC]V[dL]); disulfide 2-3)
level at time molar at 1 h ([3]; brain, by 1 h, read-out: equivalent molar concentration in the brain): ~1.9 nM | half-life ([3]; K-EDTA plasma, n=3 mice per time point): 5.8 h | caspase 3/7 activation [4]: not | caspase 3/7 activation [5]: significantly activated caspases | caspase 3/7 activation [6]: not | caspase 3/7 activation [7]: significantly activated caspases | weights of the mice ([8]; 0.5 mg·kg^−1 i.p. 3 × per week, NSG mice, during the study): did not affect the weights of the mice | tumor growth (luminescence, caliper volume) ([8]; flank of NSG mice, 0.5 mg·kg^−1 i.p. 3 × per week for 37 days, monitored 49 days, n = 9 vs 8 DMSO): dramatically suppressed tumor growth | tolerability ([9]; 0.5 mg·kg^−1 i.p. three times per week, NSG mice): tolerated well | repeated doses causing intolerable toxicity ([9]; immune-deficient NSG mice): over 0.9 mg·kg^−1 | doses inducing fatal toxicity [10]: over 0.9 mg·kg^−1
